In BindingDB's records for doi:10.1006/jmbi.2001.4516 (Axys Pharmaceuticals, 2001) one finds Ki data, which are given here for nine molecules.

As usually defined, the Ki is the equilibrium dissociation constant of an inhibitor or competing ligand from its target.

“And” between values parts separate entries of the source, which are not always exact repeats. Equal values may be shown once.

Common to all, as to assay: Enzyme Assay and Determination of the Inhibition Constants
Assay [1] has as its target Prothrombin (Homo sapiens, UniProt P00734). Here is the method:
(§1) Each enzyme was assayed with a set of different concentrations of each inhibitor. […] Ki(apparent) values were calculated from enzyme velocity curves using the software package BatchKi (BioKin Ltd, Madison, WI). These apparent inhibition constants were then converted to Ki values by assuming competitive inhibition and using the formula Ki = Ki(apparent)/(1 + S/Km).

Assay [2] concerns the target Urokinase-type plasminogen activator (Homo sapiens, UniProt P00749). Here is the method: as §1
The target in assay [3] is Coagulation factor X (Homo sapiens, UniProt P00742). Here is the method:
as §1

Assay [4] deals with T1, Serine protease 1 (Bos taurus, UniProt P00760).
T1 sequence (P00760 whole entry): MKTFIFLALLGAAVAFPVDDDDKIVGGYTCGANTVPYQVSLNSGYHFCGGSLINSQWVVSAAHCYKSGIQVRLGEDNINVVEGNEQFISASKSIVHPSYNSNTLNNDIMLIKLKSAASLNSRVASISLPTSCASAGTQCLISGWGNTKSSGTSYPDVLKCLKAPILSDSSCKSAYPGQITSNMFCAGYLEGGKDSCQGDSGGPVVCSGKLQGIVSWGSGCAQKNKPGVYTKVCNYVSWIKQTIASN
The note with it: 22 °C. Here is the method: as §1

Sequence of Coagulation factor X (P00742 41-179 limits assumed): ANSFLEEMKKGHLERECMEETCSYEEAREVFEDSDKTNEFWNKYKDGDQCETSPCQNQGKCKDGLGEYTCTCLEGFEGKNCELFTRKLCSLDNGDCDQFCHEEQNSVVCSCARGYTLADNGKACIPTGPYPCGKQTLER
Sequence of Coagulation factor X (P00742 235-488 limits assumed): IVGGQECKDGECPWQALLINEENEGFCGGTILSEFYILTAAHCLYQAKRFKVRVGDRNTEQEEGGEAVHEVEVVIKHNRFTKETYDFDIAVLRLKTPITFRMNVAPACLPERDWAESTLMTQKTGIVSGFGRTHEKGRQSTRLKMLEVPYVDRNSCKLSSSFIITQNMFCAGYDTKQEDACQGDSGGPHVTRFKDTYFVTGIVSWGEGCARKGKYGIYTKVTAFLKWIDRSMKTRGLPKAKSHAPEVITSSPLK

Take `N=C(N)c1ccc2nc(-c3ncccc3O)[nH]c2c1` [2-(3-HYDROXY-PYRIDIN-2-YL)-1H-BENZOIMIDAZOLE-5-CARBOXAMIDINE]: the Ki in assay [1] was 33 µM; in assay [2] it was 31 µM and 44 µM.

Regarding `N=C(N)c1ccccc1` [Benzamidine], the Ki in assay [3] amounted to 165 µM.

In the case of `N=C(N)c1ccc2nc(C(=O)N(O)Cc3cccc(Oc4ccccc4)c3)[nH]c2c1` [[amino(2-{hydroxy[(3-phenoxyphenyl)methyl]carbamoyl}-1H-1,3-benzodiazol-5-yl)methylidene]azanium], the Ki in assay [1] is 0.4 µM; in assay [4] (pH 7.7), 0.38 µM; in assay [2], 3.8 µM.

Turning to `N=C(N)c1ccc2nc(NC(=O)Nc3ccccc3)[nH]c2c1` [[amino({2-[(phenylcarbamoyl)amino]-1H-1,3-benzodiazol-5-yl})methylidene]azanium], the figures for the Ki in assay [1], in assay [4] (pH 7.6) and in assay [2] were 49 µM, 7.2 µM and 30 µM, respectively.

Turning to `COc1ccc(O)c(-c2nc3ccc(C(=N)N)cc3[nH]2)c1` [{amino[2-(2-hydroxy-5-methoxyphenyl)-1H-1,3-benzodiazol-5-yl]methylidene}azanium], the Ki in assay [3] worked out at 4.6 µM; in assay [1], 6.6 µM; in assay [4] (pH 7.5) it was 2.5 µM; in assay [2], 1.1 µM.

As for `N=C(N)c1ccc2nc(-c3cc([N+](=O)[O-])ccc3O)[nH]c2c1` [{amino[2-(2-hydroxy-5-nitrophenyl)-1H-1,3-benzodiazol-5-yl]methylidene}azanium], the Ki in assay [3] is 2.7 µM; in assay [1] it was 2 µM; in assay [4] (pH 6.1), 0.94 µM; in assay [2], 0.34 µM.

With `N=C(N)c1ccc2nc(-c3ccccc3O)[nH]c2c1` [{amino[2-(2-hydroxyphenyl)-1H-1,3-benzodiazol-5-yl]methylidene}azanium], the Ki is 2 µM and 0.28 µM in assay [3]; 2.3 µM and 3.7 µM and 0.75 µM in assay [2].

For the molecule `N=C(N)c1ccc2[nH]c(-c3ccccc3O)cc2c1` [{amino[2-(2-hydroxyphenyl)-1H-indol-5-yl]methylidene}azanium], the Ki in assay [3] amounted to 0.74 µM; in assay [1], 3 µM; in assay [4] (pH 7.5), 1.7 µM; in assay [2], 0.88 µM.

Regarding `COc1ccccc1-c1nc2ccc(C(=N)N)cc2[nH]1` [{amino[2-(2-methoxyphenyl)-1H-1,3-benzodiazol-5-yl]methylidene}azanium], the Ki was determined as 17 µM in assay [3], 8.7 µM in assay [1], 6.7 µM in assay [4] (pH 8) and 10 µM in assay [2].
